Among the test systems are M14 melanoma; NCI/ADR-RES ovarian; UACC-62 melanoma; HT29 colon; SK-MEL-5 melanoma; SW-620 colon; NCI-H226 lung; UACC-257 melanoma; TK-10 renal; MDA-MB-435; SK-MEL-2 melanoma.
Common to all, as to assay: DTP human tumour cell line panel, 48 h

Structures are written as SMILES.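 Five concentrations, 48 hours, 96-well plates. TGI: concentration producing complete growth inhibition.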 Where a SMILES comes first, the peptide text is derived from it. The star is where a group is joined. Boc = CC(C)(C)OC(=O)*; Bn = c1ccc(C*)cc1

A word on the TGI: it is the concentration at which net growth stops. `CCn1c(-c2ccccc2)cs/c1=N\C(P(=O)(O)O)P(=O)(O)O`: the total growth inhibition concentration (TGI) in the assay on M14 melanoma, with NCI/ADR-RES ovarian, with UACC-62 melanoma, with HT29 colon, in the assay with SK-MEL-5 melanoma and in the assay on SW-620 colon was more than 100 µM in each case. The TGI with NCI-H226 lung, in the assay with UACC-257 melanoma, in the assay with TK-10 renal and in the assay with MDA-MB-435 was more than 100 µM in each case.
Take `CC(C)Cc1ccc(C(C)C(=O)N2CCN(/C=C/c3ccccc3)CC2)cc1` (stereo not given): the TGI with NCI/ADR-RES ovarian stood at 28.2 µM; in the assay with UACC-62 melanoma, 26.3 µM; with HT29 colon, 28 µM; with SK-MEL-5 melanoma it was 26 µM; in the assay with SW-620 colon it was 30.3 µM; with NCI-H226 lung, 18.1 µM. Moreover, the TGI in the assay with UACC-257 melanoma was found to be 31.4 µM; with SK-MEL-2 melanoma, 27 µM.
For `O=C1c2ccccc2C(=O)c2c(NCC(O)CO)ccc(NCC(O)CO)c21` (stereo not given), the TGI with NCI/ADR-RES ovarian, with UACC-62 melanoma, in the assay on HT29 colon, in the assay on SK-MEL-5 melanoma, in the assay on SW-620 colon and with NCI-H226 lung was more than 100 µM throughout. Besides, the TGI in the assay with UACC-257 melanoma is more than 100 µM; with TK-10 renal it was more than 100 µM; in the assay with SK-MEL-2 melanoma, 94.8 µM; in the assay on MDA-MB-435, more than 100 µM.
Take `CN(CCSCCN(C)C(=O)OC(C)(C)C)C(=O)OC(C)(C)C`: the TGI in the assay with M14 melanoma, with NCI/ADR-RES ovarian, in the assay on UACC-62 melanoma, with HT29 colon, in the assay on SK-MEL-5 melanoma and with SW-620 colon was more than 100 µM throughout. Further, the TGI with UACC-257 melanoma, with TK-10 renal, in the assay on SK-MEL-2 melanoma and in the assay on MDA-MB-435 was more than 100 µM each time.
`Cc1c(O)ccc2c(O)c(NC(=O)c3ccc4c(c3)CCC(C)(C)O4)c(=O)oc12`: the concentration for total growth inhibition (TGI) in the assay on NCI/ADR-RES ovarian, in the assay with UACC-62 melanoma, in the assay with HT29 colon, in the assay with SK-MEL-5 melanoma, in the assay on SW-620 colon and in the assay with NCI-H226 lung was more than 100 µM in each case. For the same compound, the concentration for total growth inhibition (TGI) with UACC-257 melanoma, with TK-10 renal, in the assay on SK-MEL-2 melanoma and in the assay with MDA-MB-435 was more than 100 µM each time.
With `COc1ccc(/C=C2\CCNC2=O)cc1`, the TGI in the assay on NCI/ADR-RES ovarian, in the assay with UACC-62 melanoma, in the assay on HT29 colon, with SK-MEL-5 melanoma, in the assay on SW-620 colon and in the assay on NCI-H226 lung was more than 100 µM throughout. Moreover, the TGI in the assay on UACC-257 melanoma and in the assay with SK-MEL-2 melanoma was more than 100 µM throughout.
Take `CO/N=C(\C(=O)OC(=NC1CCCCC1)NC1CCCCC1)c1csc(NC(c2ccccc2)(c2ccccc2)c2ccccc2)n1`: the concentration for total growth inhibition (TGI) in the assay with M14 melanoma, with NCI/ADR-RES ovarian, in the assay with HT29 colon, with SK-MEL-5 melanoma, in the assay on SW-620 colon and in the assay on NCI-H226 lung was more than 10 µM throughout. For the same compound, the concentration for total growth inhibition (TGI) in the assay with UACC-257 melanoma, with TK-10 renal and with SK-MEL-2 melanoma was more than 10 µM in each case.
As to `COc1cc(Nc2nc3ccccc3nc2C(=O)O)cc(OC)c1OC`, the TGI in the assay on M14 melanoma, in the assay with NCI/ADR-RES ovarian, in the assay with SK-MEL-5 melanoma, with SW-620 colon, in the assay with NCI-H226 lung and with UACC-257 melanoma was more than 100 µM each time. Further, the values for the TGI with TK-10 renal and in the assay with MDA-MB-435 were 78.6 µM and more than 100 µM, respectively.
For `O=C1COc2cccnc2N1CCCCO`, the TGI in the assay on UACC-62 melanoma, in the assay with SK-MEL-5 melanoma, in the assay on SW-620 colon, in the assay with UACC-257 melanoma, in the assay on TK-10 renal and in the assay with SK-MEL-2 melanoma was more than 100 µM throughout. The concentration for total growth inhibition (TGI) in the assay with MDA-MB-435 is more than 100 µM.
`CCCC(=O)OCC1OC(n2ccc(N)nc2=O)C(OC(=O)CCC)C1OC(=O)CCC` (stereo not given): the TGI with NCI/ADR-RES ovarian, with UACC-62 melanoma, in the assay with HT29 colon, in the assay on SK-MEL-5 melanoma, in the assay on SW-620 colon and in the assay with NCI-H226 lung was more than 100 µM in each case. For the same compound, the TGI in the assay with UACC-257 melanoma and with SK-MEL-2 melanoma was more than 100 µM each time.
On to `C=CCc1cccc2cc(C(=O)NCc3ccccc3)c(=N)oc12`, for which the TGI is more than 100 µM in the assay with M14 melanoma; more than 100 µM in the assay with NCI/ADR-RES ovarian; more than 100 µM with UACC-62 melanoma; more than 100 µM with HT29 colon; 64.4 µM in the assay on SK-MEL-5 melanoma; more than 100 µM in the assay on SW-620 colon. The TGI is 79.3 µM in the assay with NCI-H226 lung, more than 100 µM with UACC-257 melanoma, 31.5 µM in the assay on SK-MEL-2 melanoma and more than 100 µM in the assay on MDA-MB-435.
For `COC(=O)C(CC(C)C)NC(=O)C(C)NC(=O)C(Cc1ccc(OCc2ccccc2)cc1)NC(=O)C(COCc1ccccc1)NC(=O)OC(C)(C)C` (stereo not given) (Boc-S(Bn)Y(Bn)AL-OMe; configuration not given here), the TGI with M14 melanoma, in the assay on NCI/ADR-RES ovarian, in the assay on UACC-62 melanoma, in the assay on HT29 colon, in the assay with SK-MEL-5 melanoma and in the assay on SW-620 colon was more than 100 µM in each case. The TGI with NCI-H226 lung, in the assay on TK-10 renal and in the assay with MDA-MB-435 was more than 100 µM throughout.
On to `O=C(N/N=C(\c1ccccc1)c1ccccn1)NC1CCCCC1`, for which the TGI was more than 100 µM in the assay on M14 melanoma; more than 100 µM in the assay with UACC-62 melanoma; more than 100 µM in the assay with HT29 colon; more than 100 µM in the assay with SK-MEL-5 melanoma; more than 100 µM in the assay with SW-620 colon; 83.2 µM in the assay on NCI-H226 lung. For the same compound, the TGI in the assay on UACC-257 melanoma, with TK-10 renal, with SK-MEL-2 melanoma and in the assay with MDA-MB-435 was more than 100 µM throughout.
As for `C=CCc1c(O)c2c(c3oc(=O)cc(C)c13)CC(C)O2` (stereo not given), the total growth inhibition concentration (TGI) in the assay with M14 melanoma, with UACC-62 melanoma, with HT29 colon, in the assay on SK-MEL-5 melanoma, in the assay with SW-620 colon and in the assay with NCI-H226 lung was more than 100 µM in each case. In addition, the TGI in the assay with UACC-257 melanoma, in the assay on TK-10 renal and with SK-MEL-2 melanoma was more than 100 µM each time.
With `CCOC(=O)NC(Nc1ccc(C)cc1)(C(F)(F)F)C(F)(F)F`, the TGI with M14 melanoma, in the assay on NCI/ADR-RES ovarian, with UACC-62 melanoma, in the assay on HT29 colon, in the assay with SK-MEL-5 melanoma and in the assay on SW-620 colon was more than 100 µM in each case. Moreover, the TGI with NCI-H226 lung, with TK-10 renal and in the assay on MDA-MB-435 was more than 100 µM in each case.

The values above are taken from PubChem BioAssay (NCI).
